Experimental data as given in the supplement of paper PMC4862054.

Columns and labels:
Settings in all cases: incubation time: 72 h
MDA-MB-231 [1] = test: drug sensitivity score (DSS), CellTiter-Glo (DSS (AUC-based score)); higher = stronger drug effect (viability inhibition or cytotoxicity); extreme values may be limits of the assay
How it was run: (§1)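 The area under the fitted dose-response curve was used to calculate the drug sensitivity score. Cells from breast cancer lines were incubated for 72 h in 384-well plates with compound at 5 concentrations spaced 10-fold over a 10,000-fold range specific to each compound. Plates were read for CellTox Green and then CellTiter-Glo, and normalised to 0.1 % DMSO and a positive kill control.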

CAL-148 [2] = test: as above
How it was run: as §1

CAL-85-1 [3] = test: as above
How it was run: as §1

MDA-MB-453 [4] = test: as above
How it was run: as §1

CAL-120 = test: as above
How it was run: as §1

CAL-51 [5] = test: as above
How it was run: as §1

DU-4475 [6] = test: as above
How it was run: as §1

HCC1599 = test: as above
How it was run: as §1

HCC1143 = test: normalised viability (% of control), CellTiter-Blue; higher = more viable cells (about 100 = DMSO control)
How it was run: (§2)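 384-well plates were pre-loaded with compound in 5 µl medium before 20 µl of breast cancer cell suspension was seeded. Following 72 h incubation, 2.5 µl CellTiter-Blue reagent was added for 2 h at 37 °C. Fluorescence was read at 560/590 nm and plates were normalised to vehicle (100) and a positive kill control (0), checked by Z'-factor. Normalised viability is reported at a single listed concentration of the series.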

MDA-MB-231 [7] = test: as above
How it was run: as §2

MDA-MB-436 = test: as above
How it was run: as §2

CAL-148 [8] = test: as above
How it was run: as §2

CAL-85-1 [9] = test: as above
How it was run: as §2

MDA-MB-453 [10] = test: as above
How it was run: as §2

Hs578T = test: as above
How it was run: as §2

MDA-MB-468 = test: as above
How it was run: as §2

BT-549 = test: as above
How it was run: as §2

BT-474 = test: as above
How it was run: as §2

SK-BR-3 = test: as above
How it was run: as §2

CAL-51 [11] = test: as above
How it was run: as §2

HCC1937 = test: as above
How it was run: as §2

DU-4475 [12] = test: as above
How it was run: as §2

HDQ-P1 = test: as above
How it was run: as §2

MFM-223 = test: as above
How it was run: as §2

CCN(CC)CCCC(C)Nc1c2ccc(Cl)cc2nc2ccc(OC)cc12 (stereo unspecified) [Mepacrine]
Settings	drug sensitivity score
CAL-51 [5]	0
CAL-85-1 [3]	0
CAL-120	0
CAL-148 [2]	0
DU-4475 [6]	0
HCC1599	0
MDA-MB-231 [1]	0
MDA-MB-453 [4]	0

Settings	normalised viability [%]
BT-474, 0.99 nM	113
BT-474, 10 nM	111
BT-474, 99 nM	104
BT-474, 990 nM	41.1
BT-474, 1000 nM	116
BT-474, 10000 nM	2.65
BT-549, 0.99 nM	87
BT-549, 10 nM	87.2
BT-549, 99 nM	82.2
BT-549, 990 nM	37.6
BT-549, 1000 nM	88.9
BT-549, 10000 nM	17.8
CAL-51 [11], 0.297 nM	89.1
CAL-51 [11], 2.97 nM	91.4
CAL-51 [11], 3 nM	105
CAL-51 [11], 9.9 nM	96.2
CAL-51 [11], 30 nM	97.8
CAL-51 [11], 100 nM	93.3
CAL-85-1 [9], 0.297 nM	114
CAL-85-1 [9], 2.97 nM	95.7
CAL-85-1 [9], 3 nM	94.3
CAL-85-1 [9], 9.9 nM	98.9
CAL-85-1 [9], 30 nM	88.1
CAL-85-1 [9], 100 nM	105
CAL-148 [8], 0.297 nM	118
CAL-148 [8], 2.97 nM	110
CAL-148 [8], 3 nM	98.7
CAL-148 [8], 9.9 nM	129
CAL-148 [8], 30 nM	106
CAL-148 [8], 100 nM	102
DU-4475 [12], 0.297 nM	112
DU-4475 [12], 2.97 nM	88
DU-4475 [12], 3 nM	92.6
DU-4475 [12], 9.9 nM	101
DU-4475 [12], 30 nM	89.1
DU-4475 [12], 100 nM	96.9
HCC1143, 0.99 nM	123
HCC1143, 10 nM	93.5
HCC1143, 99 nM	114
HCC1143, 990 nM	45
HCC1143, 1000 nM	96.1
HCC1143, 10000 nM	35.5
HCC1937, 0.99 nM	118
HCC1937, 10 nM	108
HCC1937, 99 nM	78.7
HCC1937, 990 nM	15.8
HCC1937, 1000 nM	63.6
HCC1937, 10000 nM	10.7
HDQ-P1, 0.297 nM	113
HDQ-P1, 2.97 nM	109
HDQ-P1, 3 nM	112
HDQ-P1, 9.9 nM	104
HDQ-P1, 30 nM	113
HDQ-P1, 100 nM	116
Hs578T, 0.99 nM	111
Hs578T, 10 nM	107
Hs578T, 99 nM	118
Hs578T, 990 nM	38.5
Hs578T, 1000 nM	122
Hs578T, 10000 nM	21.6
MDA-MB-231 [7], 0.99 nM	89.4
MDA-MB-231 [7], 10 nM	102
MDA-MB-231 [7], 99 nM	81.4
MDA-MB-231 [7], 990 nM	8.45
MDA-MB-231 [7], 1000 nM	65
MDA-MB-231 [7], 10000 nM	7.28
MDA-MB-436, 0.99 nM	109
MDA-MB-436, 10 nM	101
MDA-MB-436, 99 nM	105
MDA-MB-436, 990 nM	33
MDA-MB-436, 1000 nM	81.4
MDA-MB-436, 10000 nM	9.64
MDA-MB-453 [10], 0.297 nM	106
MDA-MB-453 [10], 2.97 nM	107
MDA-MB-453 [10], 3 nM	114
MDA-MB-453 [10], 9.9 nM	100
MDA-MB-453 [10], 30 nM	96.7
MDA-MB-453 [10], 100 nM	102
MDA-MB-468, 0.99 nM	108
MDA-MB-468, 10 nM	104
MDA-MB-468, 99 nM	106
MDA-MB-468, 990 nM	43.4
MDA-MB-468, 1000 nM	94.7
MDA-MB-468, 10000 nM	5.97
MFM-223, 0.99 nM	107
MFM-223, 10 nM	101
MFM-223, 99 nM	94.8
MFM-223, 990 nM	44.5
MFM-223, 1000 nM	100
MFM-223, 10000 nM	20.9
SK-BR-3, 0.99 nM	100
SK-BR-3, 10 nM	110
SK-BR-3, 99 nM	104
SK-BR-3, 990 nM	27.9
SK-BR-3, 1000 nM	101
SK-BR-3, 10000 nM	2.49

C[C@H]1C[C@@H]2[C@H]([C@@H](O)C[C@@]3(C)[C@H]2CC[C@]3(O)C(=O)CO)[C@@]2(C)C=CC(=O)C=C12 [Methylprednisolone]
Settings	drug sensitivity score
CAL-51 [5]	0
CAL-85-1 [3]	0
CAL-120	6.14
CAL-148 [2]	0
DU-4475 [6]	0
HCC1599	0
MDA-MB-231 [1]	0
MDA-MB-453 [4]	0

normalised viability [%]
Settings	3 nM	10 nM	30 nM	100 nM	1000 nM	10000 nM
BT-474	–	121	–	–	105	112
BT-549	–	89.4	–	–	77.8	78.4
CAL-51 [11]	100	–	100	98.2	–	–
CAL-85-1 [9]	87.6	–	102	109	–	–
CAL-148 [8]	88	–	99.4	102	–	–
DU-4475 [12]	84.7	–	83.5	86.4	–	–
HCC1143	–	89.8	–	–	111	92.5
HCC1937	–	80.2	–	–	106	80.4
HDQ-P1	108	–	103	122	–	–
Hs578T	–	102	–	–	116	111
MDA-MB-231 [7]	–	104	–	–	114	119
MDA-MB-436	–	108	–	–	92.2	108
MDA-MB-453 [10]	112	–	85.6	75.3	–	–
MDA-MB-468	–	92.7	–	–	117	88.2
MFM-223	–	89.4	–	–	86.3	74.8
SK-BR-3	–	107	–	–	97.6	91.4

O=C(O)C(=O)O.[NH-][C@@H]1CCCC[C@H]1[NH-].[Pt+2] [Oxaliplatin]
Settings	drug sensitivity score
CAL-51 [5]	0
CAL-85-1 [3]	0
CAL-120	0
CAL-148 [2]	0
DU-4475 [6]	0
HCC1599	0
MDA-MB-231 [1]	0
MDA-MB-453 [4]	0

normalised viability [%]
Settings	3 nM	10 nM	30 nM	100 nM	1000 nM	10000 nM
BT-474	–	125	–	–	118	83.5
BT-549	–	93.9	–	–	74.2	52.6
CAL-51 [11]	97.9	–	92.2	94.9	–	–
CAL-85-1 [9]	99	–	83.2	87.3	–	–
CAL-148 [8]	93	–	106	120	–	–
DU-4475 [12]	112	–	106	100	–	–
HCC1143	–	82.2	–	–	94.2	44
HCC1937	–	90.7	–	–	82.2	33.9
HDQ-P1	110	–	103	107	–	–
Hs578T	–	106	–	–	129	66.9
MDA-MB-231 [7]	–	92.2	–	–	83.5	48.9
MDA-MB-436	–	111	–	–	88.6	56.5
MDA-MB-453 [10]	119	–	101	113	–	–
MDA-MB-468	–	98.7	–	–	97.7	56.5
MFM-223	–	98.6	–	–	94.1	50.5
SK-BR-3	–	98.1	–	–	122	47.5
